Measured values reported in paper PMC11219871, “Epigenetic-based differentiation therapy for Acute Myeloid Leukemia” (Nature Communications, 2024).
Where “and” joins values, the source holds several entries; their conditions need not be identical. Identical values can stand only once. Like-named read-outs stand apart in the source and are kept apart here. One block for each compound: values may come before it.

Experiments:
Format in all cases: cell-based, human
HL-60 [1] = assay: Differentiation-apoptosis assay, CD11b / annexin-V / Sytox Green / myeloid markers flow cytometry; design: Cell viability (%): concentration or dose not given beside the values; CD11b levels: unit not given here; conditions: for CD11b (%) / Cell viability (%): HL-60, 48 h treatment, replicates 1-3 (Suppl. Fig. 5A)
Procedure: Next, the cells were washed twice with phosphate-buffered saline (PBS) and resuspended in 1X Binding Buffer at a concentration of 1 × 10^6 cells/mL. […] Finally, after the addition of 400 µL of 1X Binding Buffer to each tube, samples were collected on a BD FACSCanto flow cytometer (Becton Dickinson, San Jose, CA, USA) and analyzed using FlowJo software.
Then, 1 million cells (volume of 250 µL) were added and incubated for 30 min at room temperature in darkness. After 10 min incubation at room temperature with 2 mL of FACSLysing 1X, cells were centrifuged at 540 g for 5 min and washed twice with FACSBuffer. Finally, after centrifugation at 540 g for 5 min cells were resuspended in FACSBuffer.

ML-2 [2] = assay: as above; design: Cell viability: concentration or dose not given beside the values; CD11b levels: unit not given here; conditions: for CD11b / Cell viability: ML-2, 48 h, replicates (Fig 4A)
Procedure: (§1) Next, the cells were washed twice with phosphate-buffered saline (PBS) and resuspended in 1X Binding Buffer at a concentration of 1 × 10^6 cells/mL. An 8-µL aliquot of APC-CD11b (BD Pharmingen, Franklin Lakes, NJ, USA) and 1 µL of FITC annexin-V (AV) (BD Pharmingen, Franklin Lakes, NJ, USA) antibodies were added and incubated for 15 min at room temperature in the dark. Finally, after the addition of 400 µL of 1X Binding Buffer to each tube, samples were collected on a BD FACSCanto flow cytometer (Becton Dickinson, San Jose, CA, USA) and analyzed using FlowJo software.
(§2) For the rest of experiments, the mix of antibodies (2 µL of BV786-CD13, Cat No, 744748 BD; 1 µL of diluted 1:10 antibody of PB-HLADR, Cat No 307633, Biolegend; 5 µL of APCH7-CD14, Cat No 641394, BD) was added to 10 µL of Brilliant Stain Buffer Plus (Becton Dickinson, San Jose, CA, USA). Then, 1 million cells (volume of 250 µL) were added and incubated for 30 min at room temperature in darkness. After 10 min incubation at room temperature with 2 mL of FACSLysing 1X, cells were centrifuged at 540 g for 5 min and washed twice with FACSBuffer. Finally, after centrifugation at 540 g for 5 min cells were resuspended in FACSBuffer.

MOLM-13 [3] = assay: as above; design: Cell viability (%): concentration or dose not given beside the values; CD11b levels: unit not given here; conditions: for CD11b (%) / Cell viability (%): MOLM-13, 48 h treatment, replicates 1-3 (Suppl. Fig. 5A)
Procedure: as §1, §2

MV4-11 [4] = assay: as above; design: Cell viability (%): concentration or dose not given beside the values; CD11b levels: unit not given here; conditions: for CD11b (%) / Cell viability (%): MV4-11, 48 h treatment, replicates 1-3 (Suppl. Fig. 5A)
Procedure: as §1, §2

HL-60 [5] = assay: Cell proliferation assay: GI50; conditions: read-out: GI50
Procedure: (§3) Cell proliferation was analyzed using the CellTiter 96 Aqueous One Solution Cell Proliferation Assay (Promega, Madison, WI). This is a colorimetric method for determining the number of viable cells in proliferation. For the assay, suspension cells were cultured in triplicate at a density of 1 × 10^6 cells/mL in 96-well plates (100.000 cells/well, 100 µL/well), using only the 60 inner wells to avoid any border effects. […] Then, the cells were incubated with 100 μL/well of medium and 20 μL/well of CellTiter 96 Aqueous One Solution reagent for 1–3 h. […] The background absorbance was measured in wells with only cell line medium and solution reagent. First, the average of the absorbance from the control wells was subtracted from all other absorbance values. Data were calculated as the percentage of total absorbance of treated cells/absorbance of non-treated cells. The GI50 values of the different compounds were determined using non-linear regression plots made with GraphPad Prism v5 software.

ML-2 [6] = assay: Cell proliferation assay: GI50
Procedure: as §3

MOLM-13 [7] = assay: Cell proliferation assay: GI50
Procedure: as §3

MV4-11 [8] = assay: Cell proliferation assay: GI50
Procedure: as §3

Structure (SMILES): CCNC(=O)C[C@@H]1N=C(c2ccc(Cl)cc2)c2cc(OC)ccc2-n2c(C)nnc21 [Molibresib, reference compound]
- CD11b levels (HL-60 [1]; HL-60 treated daily for 48 h, replicates (Fig 6D)): 14.6 and 15.6 and 12.7
- CD11b levels (ML-2 [2]; ML-2 treated daily for 48 h, replicates (Fig 6E)): 15.1 and 13.2 and 11.7
- CD11b levels (MOLM-13 [3]; MOLM-13, daily treatment for 48 h, replicates 1-3 (Suppl. Fig. 9A)): 13.1 and 10.8 and 12.3
- CD11b levels (MV4-11 [4]; MV4-11, daily treatment for 48 h, replicates 1-3 (Suppl. Fig. 9A)): 12.1 and 15.4 and 13.7

- GI50 (HL-60 [5]; HL-60, replicates 1-3, nM for Panobistat and Quisinostat): 138 nM and 103 nM
- GI50 (HL-60 [5]; Homo sapiens, HL-60, HL-60, replicates 1-3, nM for Panobistat and Quisinostat): 95.7 nM
- GI50 (HL-60 [5]; Homo sapiens, HL-60, HL-60): 112 nM
- GI50 (MOLM-13 [7]; Homo sapiens, MOLM-13, MOLM-13): 67 nM
- GI50 (MOLM-13 [7]; Homo sapiens, MOLM-13, MOLM-13, replicates 1-3, nM for Panobistat and Quisinostat): 58.9 nM
- GI50 (MOLM-13 [7]; MOLM-13, replicates 1-3, nM for Panobistat and Quisinostat): 73.6 nM and 68.5 nM
- GI50 (MV4-11 [8]; Homo sapiens, MV4-11, MV4-11): 13 nM
- GI50 (MV4-11 [8]; MV4-11, replicates 1-3, nM for Panobistat and Quisinostat): 13.1 nM and 14.3 nM
Structure (SMILES): Cn1cc(CNCC2CCN(c3ncc(C(=O)NO)cn3)CC2)c2ccccc21 [Quisinostat, reference compound]
- GI50 (ML-2 [6]; Homo sapiens, ML-2, ML-2): 76 nM
- GI50 (ML-2 [6]; Homo sapiens, ML-2, ML-2, replicates 1-3, nM for Panobistat and Quisinostat): 67.3 nM
- GI50 (ML-2 [6]; ML-2, replicates 1-3, nM for Panobistat and Quisinostat): 89.5 nM and 71.2 nM
- CD11b (%) (HL-60 [1]): 36.8% and 39.6% and 35.4%
- Cell viability (%) (HL-60 [1]): 84.1% and 72.6% and 75.5%
- CD11b (ML-2 [2]): 35.4% and 25.9% and 25.4%
- Cell viability (ML-2 [2]): 86.7% and 75.1% and 77.3%
- CD11b (%) (MOLM-13 [3]): 55.3% and 50.4% and 58.7%
- Cell viability (%) (MOLM-13 [3]): 64.2% and 57.7% and 56.3%
- CD11b (%) (MV4-11 [4]): 16.1% and 10.9% and 10.0%
- Cell viability (%) (MV4-11 [4]): 83.6% and 79% and 74.7%

Structure (SMILES): CCCc1nn(C)c2c(=O)[nH]c(-c3cc(S(=O)(=O)N4CCN(C)CC4)ccc3OCC)nc12 [Sildenafil, reference compound]
- Annexin V (%) Replicate 1 (HL-60 [1]; HL-60, daily 25% GI50, 48 h): 0.22%
- Annexin V (%) Replicate 2 (HL-60 [1]; HL-60, daily 25% GI50, 48 h): 0.14%
- Annexin V (%) Replicate 3 (HL-60 [1]; HL-60, daily 25% GI50, 48 h): 0.18%
- CD11b (%) Replicate 1 (HL-60 [1]; HL-60, daily 25% GI50, 48 h): 0.00%
- CD11b (%) Replicate 2 (HL-60 [1]; HL-60, daily 25% GI50, 48 h): 4.74%
- CD11b (%) Replicate 3 (HL-60 [1]; HL-60, daily 25% GI50, 48 h): 4.47%

- GI50 (HL-60 [5]; HL-60, 48 h): > 10000 nM
- GI50 (HL-60 [5]; HL-60, replicates 1-3, µM for the other inhibitors): > 10000 nM
- GI50 (MOLM-13 [7]; MOLM-13, 48 h): > 10000 nM
- GI50 (MOLM-13 [7]; MOLM-13, replicates 1-3, µM for the other inhibitors): > 10000 nM
- GI50 (MV4-11 [8]; MV4-11, 48 h): > 10000 nM
- GI50 (MV4-11 [8]; MV4-11, replicates 1-3, µM for the other inhibitors): > 10000 nM
Structure (SMILES): CN1CCc2c(c3ccccc3n2Cc2ccc(C(=O)NO)cc2)C1 [Tubastatin, reference compound]
- GI50 (ML-2 [6]; ML-2, 48 h): > 10000 nM
- GI50 (ML-2 [6]; ML-2, replicates 1-3, µM for the other inhibitors): > 10000 nM
- CD11b (%) (HL-60 [1]): 26.8% and 22.6% and 20.1%
- Cell viability (%) (HL-60 [1]): 69.4% and 76.8% and 76.1%
- CD11b (ML-2 [2]): 28.3% and 27.1% and 25.0%
- Cell viability (ML-2 [2]): 83.1% and 89.7% and 79.2%
- CD11b (%) (MOLM-13 [3]): 29.6% and 36.5% and 39.8%
- Cell viability (%) (MOLM-13 [3]): 74.1% and 65.3% and 78.4%
- CD11b (%) (MV4-11 [4]): 9.3% and 10.2% and 12.6%
- Cell viability (%) (MV4-11 [4]): 89.7% and 84.3% and 92.1%
